Oligonucleotides are written 5' to 3', each unit as a sugar letter and its base; * is a phosphorothioate linkage, no mark a phosphodiester; rarer units and linkages stand in square brackets, end groups in braces. Plain capitals give the bases only. d = 2'-deoxy (DNA); r = 2'-OH (RNA)
target: UBE2S; assay: reporter assay of Huesken 2005; details: siRNA
Also: test concentration or dose not given here.

Substance	normalised inhibition (eCFP-eYFP dual reporter)
sense rUrGrCrGrUrCrArArCrGrUrGrCrUrCrArArGrAdTdT / antisense rUrCrUrUrGrArGrCrArCrGrUrUrGrArCrGrCrAdGdA	74.5%
sense rUrGrCrUrCrUrUrGrGrArGrArArCrUrArCrGrAdTdT / antisense rUrCrGrUrArGrUrUrCrUrCrCrArArGrArGrCrAdGdG	77.8%
sense rUrGrGrArGrGrUrCrUrGrUrUrCrCrGrCrArUrGdTdT / antisense rCrArUrGrCrGrGrArArCrArGrArCrCrUrCrCrAdGdC	58.5%
sense rUrGrGrCrGrArGrArUrCrUrGrCrGrUrCrArArCdTdT / antisense rGrUrUrGrArCrGrCrArGrArUrCrUrCrGrCrCrAdTdT	85.6%
sense rUrUrCrCrCrArArCrGrArGrGrArGrGrArCrCrUdTdT / antisense rArGrGrUrCrCrUrCrCrUrCrGrUrUrGrGrGrArAdAdG	41.6%

target: UBE2W; assay: reporter assay of Huesken 2005; details: siRNA

Substance	normalised inhibition (eCFP-eYFP dual reporter)
sense rArArArArUrArUrUrCrCrUrGrUrUrCrArUrCrCdTdT / antisense rGrGrArUrGrArArCrArGrGrArArUrArUrUrUrUdCdA	53.5%
sense rArArArArUrUrCrArArUrUrArCrArCrArGrUrGdTdT / antisense rCrArCrUrGrUrGrUrArArUrUrGrArArUrUrUrUdGdA	76.8%
sense rArArCrUrUrCrUrArUrUrUrArArArUrUrUrArGdTdT / antisense rCrUrArArArUrUrUrArArArUrArGrArArGrUrUdGdA	96.1%
sense rArArGrArGrArCrGrArCrCrArCrCrGrGrArUrAdTdT / antisense rUrArUrCrCrGrGrUrGrGrUrCrGrUrCrUrCrUrUdTdT	82.7%
sense rArArGrArGrUrGrUrUrCrArArArArUrUrCrArAdTdT / antisense rUrUrGrArArUrUrUrUrGrArArCrArCrUrCrUrUdCdT	114%
sense rArArUrCrArGrUrUrUrGrUrCrUrUrArGrCrArUdTdT / antisense rArUrGrCrUrArArGrArCrArArArCrUrGrArUrUdGdG	104%
sense rArArUrUrArCrArCrArGrUrGrGrArUrUrGrUrAdTdT / antisense rUrArCrArArUrCrCrArCrUrGrUrGrUrArArUrUdGdA	112%
sense rArArUrUrUrCrArArCrUrUrCrUrArUrUrUrArAdTdT / antisense rUrUrArArArUrArGrArArGrUrUrGrArArArUrUdTdT	97.5%
sense rArCrArCrArGrUrGrGrArUrUrGrUrArGrArCrAdTdT / antisense rUrGrUrCrUrArCrArArUrCrCrArCrUrGrUrGrUdAdA	99.3%
sense rArCrArGrUrGrGrArUrUrGrUrArGrArCrArUrGdTdT / antisense rCrArUrGrUrCrUrArCrArArUrCrCrArCrUrGrUdGdT	110%
sense rArCrCrArCrCrGrGrArUrArArUrUrCrUrUrUrUdTdT / antisense rArArArArGrArArUrUrArUrCrCrGrGrUrGrGrUdCdG	96.7%
sense rArCrUrGrGrUrCrCrCrCrArGrCrGrCrUrCrUrCdTdT / antisense rGrArGrArGrCrGrCrUrGrGrGrGrArCrCrArGrUdCdT	93.1%
sense rArGrArArGrArCrUrGrGrUrCrCrCrCrArGrCrGdTdT / antisense rCrGrCrUrGrGrGrGrArCrCrArGrUrCrUrUrCrUdGdT	88.4%
sense rArGrArArUrCrCrArArArGrArArArArCrArArAdTdT / antisense rUrUrUrGrUrUrUrUrCrUrUrUrGrGrArUrUrCrUdTdG	106%
sense rArGrArGrUrGrUrUrCrArArArArUrUrCrArArUdTdT / antisense rArUrUrGrArArUrUrUrUrGrArArCrArCrUrCrUdTdC	109%
sense rArGrCrArUrUrArUrUrArGrCrArUrGrCrUrUrUdTdT / antisense rArArArGrCrArUrGrCrUrArArUrArArUrGrCrUdAdA	84.8%

Substance	normalised inhibition (eCFP-eYFP dual reporter)
sense rArGrGrUrGrCrArCrCrArGrGrUrArCrCrUrUrAdTdT / antisense rUrArArGrGrUrArCrCrUrGrGrUrGrCrArCrCrUdTdC	93.2%
sense rArGrUrArGrUrCrGrArUrArUrCrCrUrUrUrUrGdTdT / antisense rCrArArArArGrGrArUrArUrCrGrArCrUrArCrUdAdA	124%
sense rArGrUrCrGrArUrArUrCrCrUrUrUrUrGrArCrUdTdT / antisense rArGrUrCrArArArArGrGrArUrArUrCrGrArCrUdAdC	81.4%
sense rArUrCrArGrUrUrUrGrUrCrUrUrArGrCrArUrUdTdT / antisense rArArUrGrCrUrArArGrArCrArArArCrUrGrArUdTdG	107%
sense rArUrCrCrUrCrArUrGrUrUrUrArUrArGrCrArAdTdT / antisense rUrUrGrCrUrArUrArArArCrArUrGrArGrGrArUdGdA	104%
sense rArUrCrUrGrUrUrUrArUrCrCrArUrUrCrUrArAdTdT / antisense rUrUrArGrArArUrGrGrArUrArArArCrArGrArUdAdT	96.6%
sense rArUrGrArCrCrUrUrArArArUrGrArGrArArGrAdTdT / antisense rUrCrUrUrCrUrCrArUrUrUrArArGrGrUrCrArUdTdC	68.9%
sense rArUrGrGrArArGrGrUrGrCrArCrCrArGrGrUrAdTdT / antisense rUrArCrCrUrGrGrUrGrCrArCrCrUrUrCrCrArUdGdT	86.1%
sense rArUrGrUrGrCrGrArArCrArUrGrUrArArCrArAdTdT / antisense rUrUrGrUrUrArCrArUrGrUrUrCrGrCrArCrArUdAdA	88.7%
sense rArUrGrUrUrUrArUrArGrCrArArUrGrGrUrCrAdTdT / antisense rUrGrArCrCrArUrUrGrCrUrArUrArArArCrArUdGdA	96.2%
sense rArUrUrArGrCrArUrGrCrUrUrUrCrCrArGrCrUdTdT / antisense rArGrCrUrGrGrArArArGrCrArUrGrCrUrArArUdAdA	67.5%
sense rCrArArGrGrArArArArGrArGrArCrGrArCrCrAdTdT / antisense rUrGrGrUrCrGrUrCrUrCrUrUrUrUrCrCrUrUrGdCdA	110%
sense rCrArCrArGrUrGrGrArUrUrGrUrArGrArCrArUdTdT / antisense rArUrGrUrCrUrArCrArArUrCrCrArCrUrGrUrGdTdA	115%
sense rCrArGrUrCrCrArArUrCrArGrUrUrUrGrUrCrUdTdT / antisense rArGrArCrArArArCrUrGrArUrUrGrGrArCrUrGdAdG	122%
sense rCrArUrUrArUrUrArGrCrArUrGrCrUrUrUrCrCdTdT / antisense rGrGrArArArGrCrArUrGrCrUrArArUrArArUrGdCdT	93.2%
sense rCrCrArArArGrArArArArCrArArArArUrGrGrUdTdT / antisense rArCrCrArUrUrUrUrGrUrUrUrUrCrUrUrUrGrGdAdT	101%
